Patent US7605170B2, “8-azabicyclo[3.2.1]octane derivatives” (N.V. Organon, priority 2005, dated 2009)

What was measured:
Type in all cases: cell-based
[1] = target: T1, human serotonin transporter (hSERT) (Homo sapiens, UniProt P31645); assay: Assay of monoamine uptake: inhibition of serotonin uptake; conditions: Chinese Hamster Ovary cells expressing hSERT; 20 nM [3H]-neurotransmitter mixture; ambient temperature; read-out: hSERT pEC50 (inhibition of serotonin uptake) (converted)
T1 construct: expressed in transfected cells
T1 sequence (P31645 whole entry): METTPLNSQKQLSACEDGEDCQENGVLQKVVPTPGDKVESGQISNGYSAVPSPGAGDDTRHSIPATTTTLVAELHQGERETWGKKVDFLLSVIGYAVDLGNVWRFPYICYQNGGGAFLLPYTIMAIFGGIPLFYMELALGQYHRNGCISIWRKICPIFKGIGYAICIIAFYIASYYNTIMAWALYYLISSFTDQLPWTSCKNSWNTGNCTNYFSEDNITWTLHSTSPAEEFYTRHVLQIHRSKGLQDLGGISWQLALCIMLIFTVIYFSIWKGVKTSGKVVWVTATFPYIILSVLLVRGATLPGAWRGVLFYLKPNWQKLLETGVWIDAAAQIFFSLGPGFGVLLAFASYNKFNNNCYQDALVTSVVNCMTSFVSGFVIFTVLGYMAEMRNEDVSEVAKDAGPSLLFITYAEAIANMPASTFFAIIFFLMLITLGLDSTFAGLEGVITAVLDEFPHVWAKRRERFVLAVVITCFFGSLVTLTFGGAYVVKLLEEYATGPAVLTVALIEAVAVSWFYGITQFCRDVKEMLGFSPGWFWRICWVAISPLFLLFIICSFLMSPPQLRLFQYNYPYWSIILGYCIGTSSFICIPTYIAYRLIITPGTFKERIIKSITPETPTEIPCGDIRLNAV
Procedure: (§1) The in vitro test for the inhibition of dopamine and serotonin uptake was performed in Chinese Hamster Ovary cells expressing the human dopamine transporter (hDAT) or the human serotonin transporter (hSERT). The in vitro test for the inhibition of noradrenaline uptake was performed in Madin Darby Canine Kidney Cells (MDCK) expressing the human noradrenaline transporter (hNET). Briefly, cell lines stably overexpressing the appropriate human transporter were propagated and plated according to standard cell culture techniques. Following plating, cells were left to adhere for either one or two days. A 6-point serial dilution (normally 1E-5M to 1E-10M) of test and reference compounds was prepared, added to the washed cells and incubated for 5 minutes at ambient temperature for dopamine or serotonin transporter overexpressing and 37° C. for noradrenaline overexpressing cells. Next, a final concentration of 20 nM of appropriate neurotransmitter (mixture of [^3H]-neurotransmitter and non-labelled neurtoransmitter) was added and the cells were incubated for three or five minutes at ambient temperature for dopamine or serotonin transporter overexpressing cells or ten minutes at 37° C. for noradrenaline overexpressing cells. Following termination of the assay, Microscint-20 was added directly to the cells and the amount of radioactivity taken up by the cells was estimated by scintillation counting.
(§2) pEC50 values indicating inhibition of monoamine uptake were calculated using standard curve fitting techniques.

[2] = target: T2, human noradrenaline transporter (hNET) (Homo sapiens, UniProt P23975); assay: Assay of monoamine uptake: inhibition of noradrenaline uptake; conditions: MDCK cells expressing hNET; 20 nM [3H]-neurotransmitter mixture; 37° C.; read-out: hNET pEC50 (inhibition of noradrenaline uptake) (converted)
T2 construct: expressed in transfected cells
T2 sequence (P23975 whole entry): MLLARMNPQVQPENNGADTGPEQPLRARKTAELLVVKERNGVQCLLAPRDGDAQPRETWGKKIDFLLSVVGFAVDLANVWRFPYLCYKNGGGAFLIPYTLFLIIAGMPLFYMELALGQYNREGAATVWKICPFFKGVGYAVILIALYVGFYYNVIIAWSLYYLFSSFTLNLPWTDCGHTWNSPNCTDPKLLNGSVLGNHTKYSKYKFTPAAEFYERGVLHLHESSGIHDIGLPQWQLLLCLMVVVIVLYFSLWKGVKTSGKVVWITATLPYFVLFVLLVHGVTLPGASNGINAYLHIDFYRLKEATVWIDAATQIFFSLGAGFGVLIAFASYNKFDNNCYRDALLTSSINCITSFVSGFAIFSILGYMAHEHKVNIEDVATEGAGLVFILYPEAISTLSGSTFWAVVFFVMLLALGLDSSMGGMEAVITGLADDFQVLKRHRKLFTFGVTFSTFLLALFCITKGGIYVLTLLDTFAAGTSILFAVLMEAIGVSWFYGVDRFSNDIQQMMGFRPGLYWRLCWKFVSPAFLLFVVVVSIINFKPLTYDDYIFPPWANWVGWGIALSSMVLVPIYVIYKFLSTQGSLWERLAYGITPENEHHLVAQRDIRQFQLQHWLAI
Procedure: as §1, §2

[3] = target: T3, human dopamine transporter (hDAT) (Homo sapiens, UniProt Q01959); assay: Assay of monoamine uptake: inhibition of dopamine uptake; conditions: Chinese Hamster Ovary cells expressing hDAT; 20 nM [3H]-neurotransmitter mixture; ambient temperature; read-out: hDAT pEC50 (inhibition of dopamine uptake) (converted)
T3 construct: expressed in transfected cells
T3 sequence (Q01959 whole entry): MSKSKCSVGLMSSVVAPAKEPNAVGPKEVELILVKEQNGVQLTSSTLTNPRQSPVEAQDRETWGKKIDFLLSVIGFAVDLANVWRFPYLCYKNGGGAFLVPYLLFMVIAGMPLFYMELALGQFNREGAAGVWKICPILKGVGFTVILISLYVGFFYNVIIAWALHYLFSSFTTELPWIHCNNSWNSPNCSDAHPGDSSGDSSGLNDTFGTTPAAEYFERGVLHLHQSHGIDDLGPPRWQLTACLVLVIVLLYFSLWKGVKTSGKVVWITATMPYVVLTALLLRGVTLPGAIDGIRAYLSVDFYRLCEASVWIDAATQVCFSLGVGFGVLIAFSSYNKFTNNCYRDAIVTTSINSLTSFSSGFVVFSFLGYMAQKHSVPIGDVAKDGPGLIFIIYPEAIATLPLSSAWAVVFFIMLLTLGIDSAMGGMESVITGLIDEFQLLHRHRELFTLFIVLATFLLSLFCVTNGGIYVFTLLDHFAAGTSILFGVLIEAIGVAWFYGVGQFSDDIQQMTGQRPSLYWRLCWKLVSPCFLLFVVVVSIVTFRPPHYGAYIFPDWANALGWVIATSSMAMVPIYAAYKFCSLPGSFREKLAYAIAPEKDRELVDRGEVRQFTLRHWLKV
Procedure: as §1, §2

In the case of `c1ccc(Oc2cccc(O[C@H]3C[C@H]4CC[C@@H](C3)N4)c2)cc1` [III.5, 3-endo-(3-Phenoxyphenoxy)-8-azabicyclo[3.2.1]octane], the EC50 [1] is reported as over 1 µM, the EC50 [2] is reported as 0.1 to 1 µM and the EC50 [3] is reported as under 0.1 µM.
In the case of `FC(F)(F)c1ccccc1-c1cccc(O[C@@H]2C[C@H]3CC[C@@H](C2)N3)c1` [IV.8, 3-exo-(2′-Trifluoromethylbiphenyl-3-yloxy)-8-azabicyclo[3.2.1]octane], the EC50 [1] is reported as 0.1 to 1 µM, the EC50 [2] is reported as under 0.1 µM and the EC50 [3] is reported as over 1 µM.
With `COc1cc(Oc2ccccc2)cc(O[C@@H]2C[C@H]3CC[C@@H](C2)N3)c1F` [IV.9, 3-exo-(2-Fluoro-3-methoxy-5-phenoxyphenoxy)-8-azabicyclo[3.2.1]octane] the EC50 [1] was over 1 µM, the EC50 [2] was under 0.1 µM and the EC50 [3] was under 0.1 µM.
`Clc1cc(Oc2ccccc2)cc(O[C@@H]2C[C@H]3CC[C@@H](C2)N3)c1` [IV.19, 3-exo-(3-Chloro-5-phenoxyphenoxy)-8-azabicyclo[3.2.1]octane] showed an EC50 [1] of over 1 µM, an EC50 [2] of under 0.1 µM and an EC50 [3] of under 0.1 µM.
`N#Cc1ccc(-c2cc(C#N)cc(O[C@@H]3C[C@H]4CC[C@@H](C3)N4)c2)nc1` [IX.3, exo 6-(3-(8-Azabicyclo[3.2.1]oct-3-yloxy)-5-cyanophenyl)nicotinonitrile] was tested, and the EC50 [1] was under 0.1 µM, the EC50 [2] was over 1 µM and the EC50 [3] was over 1 µM.
`FC(F)(F)c1ccc(O[C@@H]2C[C@H]3CC[C@@H](C2)N3)cc1-c1ccccc1` [VI.3, 3-exo-(6-Trifluoromethylbiphenyl-3-yloxy)-8-azabicyclo[3.2.1]octane] was tested, and the EC50 [1] was 0.1 to 1 µM, the EC50 [2] was over 1 µM and the EC50 [3] was over 1 µM.
`N#Cc1ccc(-c2cc(C#N)cc(O[C@@H]3C[C@H]4CC[C@@H](C3)N4)c2)cc1` [VI.8, exo 5-(8-Azabicyclo[3.2.1]oct-3-yloxy)-biphenyl-3,4′-dicarbonitrile] gave an EC50 [1] of under 0.1 µM, an EC50 [2] of over 1 µM and an EC50 [3] of over 1 µM.
